We go through 18 compounds from ChEMBL document CHEMBL1137546, “The discovery of indole-derived long acting beta2-adrenoceptor agonists for the treatment of asthma and COPD” (Bioorg Med Chem Lett, 2007).

Structures are written as SMILES.

The species named for data set [1] is Homo sapiens. The experiment in a line: Ratio of EC50 for human recombinant adrenergic beta-2 receptor to EC50 for human recombinant adrenergic beta-1 receptor.
Data set [2] addresses Beta-2 adrenergic receptor (Homo sapiens, UniProt P07550).
Description: Agonist activity at human recombinant adrenergic beta-2 receptor expressed in CHO cells assessed as elevation in cAMP levels
The nature of data set [3]: Apparent permeability from basolateral to apical side of human Caco-2 cell membrane. The format is ADME, cell-based.
Data set [4] can be described thus: Half life in iv dosed rat. The class given is ADME, organism-based. To be noted: in vivo.
Data set [5] is described as follows: Total clearance in iv dosed rat. The class given is ADME, organism-based. To be noted: in vivo.
Data set [6] is described as follows: Lipophilicity, log D of the compound. The class given is physicochemical. Particulars: octanol/water.
Data set [7] in a line: Oral bioavailability po dosed rat. To be noted: in vivo. The class given is ADME, organism-based.
Data set [8] in a line: Metabolic stability in human liver microsomes. The format is ADME, Microsome.
Data set [9] is described as follows: Apparent permeability from apical to basolateral side of human Caco-2 cell membrane. The format is ADME, cell-based. A general note: Caco-2 cells form a polarised layer with tight junctions and transporters.
Data set [10] can be described thus: Volume of distribution in iv dosed rat. The class given is ADME, organism-based. To be noted: in vivo.
The nature of data set [11]: Protein binding in rat plasma. The class given is ADME, cell-free. To be noted: read-out: PPB (converted).
Data set [12] relates to Rattus norvegicus. The experiment in a line: Unbound clearance in iv dosed rat. The format is ADME, organism-based. To be noted: in vivo.

Beta-2 adrenergic receptor, sequence (P07550 whole entry): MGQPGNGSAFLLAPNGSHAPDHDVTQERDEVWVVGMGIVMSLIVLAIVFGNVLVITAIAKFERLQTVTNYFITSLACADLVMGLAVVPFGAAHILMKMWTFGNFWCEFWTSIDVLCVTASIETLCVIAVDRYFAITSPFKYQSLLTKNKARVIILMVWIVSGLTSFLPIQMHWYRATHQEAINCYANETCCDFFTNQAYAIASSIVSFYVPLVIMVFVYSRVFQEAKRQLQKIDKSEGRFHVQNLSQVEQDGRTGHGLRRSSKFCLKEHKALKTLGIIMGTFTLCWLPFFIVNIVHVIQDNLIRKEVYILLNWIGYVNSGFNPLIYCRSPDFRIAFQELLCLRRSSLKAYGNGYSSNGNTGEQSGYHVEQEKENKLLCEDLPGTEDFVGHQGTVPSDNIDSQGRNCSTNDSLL

On to `C[C@H](Cc1ccc2[nH]c(C(=O)NCc3c(F)cccc3F)cc2c1)NC[C@H](O)c1ccc(O)c(CO)c1`, for which the Ratio EC50 in [1] came out at 296. For the same compound, in [2], the 50% effective concentration (EC50) (as a rule, the concentration that produces a half-maximal response) is 0.053 nM.

In the case of `CC[C@H](Cc1ccc2[nH]c(C(=O)NCc3c(OC)cccc3OC)cc2c1)NC[C@H](O)c1ccc(O)c(CO)c1`, in data set [1], the Ratio EC50 worked out at 5740. In data set [2], this compound displayed an EC50 of 0.258 nM.

With `CCn1c(C(=O)NCc2c(OC)cccc2OC)cc2cc(C[C@@H](C)NC[C@H](O)c3ccc(O)c(CO)c3)ccc21`, in data set [1], the Ratio EC50 turned out to be 254. Further, in data set [2], the EC50 amounted to 2.55 nM.

As to `COc1cccc(OC)c1CNC(=O)c1cc2cc(C[C@@H](C)NC[C@H](O)c3ccc(O)c(CO)c3)ccc2[nH]1`, the Papp B→A (usually the apparent permeability from the basolateral to the apical side of a cell layer) in [3] was determined as 14 ×10⁻⁶ cm/s. For the same compound, the half-life (in general, the time needed for the level to fall by half in the phase considered) is 96 min in [4] and 4 min in [8]. In addition, the clearance (as a rule, the rate of elimination divided by the concentration) in data set [5] was determined as 130 mL/min/kg. Moreover, the Ratio EC50 in data set [1] came to 4040. In addition, the logD – broadly, lipophilicity at a set pH, counting ionised and neutral species – in [6] came to 2.2. For the same compound, the bioavailability (usually the share of a dose that reaches the circulation, judged against a reference dose that is usually intravenous) in data set [7] is less than 5%. The apical-to-basolateral permeability (Papp A→B) – broadly, how fast a substance crosses the layer from the apical side – in data set [9] was less than 1 ×10⁻⁶ cm/s. Further, the Vd (as a rule, a proportionality between amount in the body and measured concentration, not a real space) in data set [10] came out at 18 L/kg. For the same compound, in data set [11], the fraction unbound is 0.1. The compound further had a CL in data set [12] of 1200 mL/min/kg. In addition, the EC50 in data set [2] was determined as 0.058 nM.

Take `C[C@H](Cc1ccc2[nH]c(C(=O)NCc3ccc(O)cc3)cc2c1)NC[C@H](O)c1ccc(O)c(CO)c1`: the Ratio EC50 in data set [1] was 75. In addition, the 50% effective concentration (EC50) in [2] turned out to be 0.164 nM.

Regarding `C[C@H](Cc1ccc2[nH]c(C(=O)N(C)Cc3ccccc3)cc2c1)NC[C@H](O)c1ccc(O)c(CO)c1`, the Ratio EC50 in [1] was 882. In data set [6], the log distribution coefficient (logD) stood at 2.1. Besides, the midpoint of the response in data set [2], the EC50, lay at 0.022 nM.

`COc1ccccc1CNC(=O)c1cc2cc(C[C@@H](C)NC[C@H](O)c3ccc(O)c(CO)c3)ccc2[nH]1`: in [1], the Ratio EC50 is 1240. This compound had a logD in data set [6] of 2.2.

As for `C[C@H](Cc1ccc2[nH]c(C(=O)N[C@H](C)c3ccccc3)cc2c1)NC[C@H](O)c1ccc(O)c(CO)c1`, the Ratio EC50 in data set [1] is 585. The logD in data set [6] came out at 2.2. In addition, the EC50 in data set [2] came to 0.058 nM.

`COc1cccc(CCNC(=O)c2cc3cc(C[C@@H](C)NC[C@H](O)c4ccc(O)c(CO)c4)ccc3[nH]2)c1`: the Ratio EC50 in [1] is 35. Moreover, the logD in [6] was 2. In [2], this compound yielded an EC50 of 0.254 nM.

On to `C[C@H](Cc1ccc2[nH]c(C(=O)NCc3nccs3)cc2c1)NC[C@H](O)c1ccc(O)c(CO)c1`, for which the Ratio EC50 in data set [1] is 1340. This compound showed a logD in data set [6] of 0.8. Moreover, a half-maximal response in data set [2] (EC50) required 0.031 nM.

As to `CSc1ccccc1CNC(=O)c1cc2cc(C[C@@H](C)NC[C@H](O)c3ccc(O)c(CO)c3)ccc2[nH]1`, the Ratio EC50 in [1] is 332. For the same compound, it took 0.038 nM to reach a half-maximal effect in data set [2] (EC50).

In turn, `OCc1cc([C@@H](O)CNCCCCCCOCCCCc2ccccc2)ccc1O` [SALMETEROL] gave a logD in data set [6] of 2.1.

Take `C[C@H](Cc1ccc2[nH]c(C(=O)NCc3ccccc3)cc2c1)NC[C@H](O)c1ccc(O)c(CO)c1`: the Ratio EC50 in data set [1] worked out at 480. For the same compound, the midpoint of the response in data set [2], the EC50, lay at 0.049 nM.

With `C[C@H](Cc1ccc2[nH]c(C(=O)NCc3ccc(S(N)(=O)=O)cc3)cc2c1)NC[C@H](O)c1ccc(O)c(CO)c1`, in data set [1], the Ratio EC50 was found to be 42. The same compound had an EC50 in data set [2] of 0.122 nM.

As for `C[C@H](Cc1ccc2[nH]c(C(=O)NCc3ccccn3)cc2c1)NC[C@H](O)c1ccc(O)c(CO)c1`, in data set [1], the Ratio EC50 was 1530. In addition, in data set [2], the EC50 worked out at 0.038 nM.

Take `COc1cccc(OC)c1CNC(=O)c1cc2cc(C[C@@H](C)NC[C@H](O)c3ccc(O)c(CO)c3)ccc2n1C`: the Ratio EC50 in data set [1] amounted to 1080. In data set [2], it took 0.706 nM to reach a half-maximal effect (EC50).

Take `COc1cccc(OC)c1CNC(=O)c1cc2cc(C[C@@H](C)NC[C@H](O)c3ccc(O)c(CO)c3)ccc2n1Cc1ccccc1`: the Ratio EC50 in [1] was found to be 237. For the same compound, in data set [2], the EC50 came to 0.687 nM.

As for `C[C@H](Cc1ccc2[nH]c(C(=O)NCC3CCC3)cc2c1)NC[C@H](O)c1ccc(O)c(CO)c1`, the Ratio EC50 in [1] is 410. This compound also gave a log distribution coefficient (logD) in data set [6] of 1.9. Also, in data set [2], the half-maximal effective concentration (EC50) was found to be 0.051 nM.
